Holding throughout (format): cell-based
The target in one experiment is T1, mouse H3R (Mus musculus, UniProt P58406).
T1 construct: endogenous in cells; host or cells: primary cortical neurons of neonatal ICR mice
Description: ERK1/2 phosphorylation in neonatal mouse cortical neuron cultures. Conditions: 5 µM. The procedure: Figure 8 Phosphorylation of ERK1/2 induced by ZEL-H16 in mouse cortical neurons. A, Time-dependent phosphorylation of ERK1/2 induced by 5 µM ZEL-H16 in neonatal mouse cortical neuron cultures. B, The phosphorylation of ERK1/2 induced by 50 µM ZEL-H16 for 20 min was mostly abolished by 100 ng/mL PTX or 10 µM thioperamide. Signals were quantified by densitometric image analysis and p-ERK was normalized to a loading control (ERK). The signal at each point is expressed as the percentage of the maximal p-ERK signal induced by ZEL-H16. Data represent the mean ±SE of three independent experiments.
Neuronal cortical cultures were prepared from neonatal ICR mice. Cerebral cortices were dissociated in sterile Dulbecco’s phosphate-buffered saline (D-PBS; Sigma-Aldrich, St. Louis, MO), and the neurons were isolated in the same medium containing 0.5% trypsin at 37°C for 10 min. After centrifugation, dissociated neurons were re-suspended in neurobasal medium (NBM; Gibco, Carlsbad, CA) supplemented with 2% B-27 and 0.5 mmol/L-glutamine (Gibco, Carlsbad, CA) and then plated on 48-well plates at a density of approximately 1.3×10^6 per well. After 7 days of culture, the neurons were serum starved for approximately 3 h prior to drug treatment. […]

Experiment [1] deals with T2, H3R (Homo sapiens, UniProt Q9Y5N1).
T2 construct: expressed in transfected cells
T2 sequence (Q9Y5N1 whole entry): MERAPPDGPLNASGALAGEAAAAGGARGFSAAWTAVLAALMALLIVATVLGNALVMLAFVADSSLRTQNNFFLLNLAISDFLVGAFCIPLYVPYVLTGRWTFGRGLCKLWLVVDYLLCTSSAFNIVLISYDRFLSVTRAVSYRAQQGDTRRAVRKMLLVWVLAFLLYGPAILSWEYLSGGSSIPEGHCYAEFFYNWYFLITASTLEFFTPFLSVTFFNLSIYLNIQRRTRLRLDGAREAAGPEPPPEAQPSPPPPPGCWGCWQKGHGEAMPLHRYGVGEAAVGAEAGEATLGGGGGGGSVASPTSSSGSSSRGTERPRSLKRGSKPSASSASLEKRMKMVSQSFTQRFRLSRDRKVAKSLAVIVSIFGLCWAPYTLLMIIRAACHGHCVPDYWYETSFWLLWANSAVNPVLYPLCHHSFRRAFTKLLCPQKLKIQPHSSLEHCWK
As to the kind of experiment: ERK1/2 phosphorylation (Western blot) in HEK-293 cells stably expressing H3R. The method, then: Figure 7 Phosphorylation of ERK1/2 induced by ZEL-H16 in H3R-expressing HEK-293 cells. […] Signals were quantified by densitometric image analysis and p-ERK was normalized to a loading control (ERK). […] Concentration -dependent phosphorylation signals were quantified by densitometric analysis and p-ERK levels were normalized to total ERK levels. […] C, The phosphorylation of ERK1/2 induced by ZEL-H16 could be entirely abolished by co-incubation with H3R antagonist thioperamide (***p<0.001). Data represent the mean ±SE of three independent experiments.
HEK-293 cells stably expressing human H3R were grown in a 6-well plate and were serum starved 2 h in serum-free culture medium prior to stimulation. Cells were stimulated with the indicated H3R ligands at the designated concentrations. Incubations were stopped at the indicated times by removing the stimulation medium by aspiration. The cells were washed in ice-cold PBS and subsequently lysed in 100 µl of lysis buffer [20 mM HEPES (pH 7.5), 10 mM EDTA, 150 mM NaCl, 1% Triton X-100, and one tablet of complete protease inhibitor (Roche, Indianapolis, IN) per 50 mL] at 4°C on a rocker for 30 min. The lysates were centrifuged and separated by sodium dodecyl sulfate-polyacrylamide (12%) gel electrophoresis (SDS-PAGE) and blotted onto polyvinylidene difluoride membranes. Membranes were blocked for 1 h at room temperature in TBST (10 mmol/L Tris, 150 mmol/L NaCl, 0.1% Tween-20, pH 8.0) buffer containing 5% (v/w) skim milk. Membranes were probed overnight with primary antibodies against p-ERK1/2 (1∶1,000; Cell Signaling, Danvers, MA) in TBST containing 5% (v/w) BSA, and then probed with horseradish peroxidase-labeled secondary antibody (1∶5,000) for 1 h at room temperature in TBST containing 5% (v/w) milk powder. Immunoreactivity was detected by ECL assays. The blots were stripped and reprobed using antibodies against total ERK1/2 (1∶2,000) (Cell Signaling, Danvers, MA) as a control.
Background: Immunoblotting shows a protein as a band on a membrane.

Experiment [2] has as its target T2, H3R. As to the kind of experiment: H3R internalization, cell-surface ELISA in HEK-293 cells stably transfected with Flag-H3R. As to conditions: 100 µM, 45 min at 37°C. The procedure: ELISA data are expressed as the percentage of receptors detected on the surface of agonist-untreated cells expressing H3R. Error bars represent the SEM for four replicates.
The cell surface expression of H3R was quantitatively assessed by ELISA and performed as described previously. Briefly, HEK-293 cells stably transfected with the pCMV-H3R construct were seeded in 48-well dishes coated with poly-L-lysine. […] Medium was aspirated and the cells were washed once with Tris-buffered saline (TBS). […] Cells were then incubated for 1 h with an alkaline phosphatase-conjugated monoclonal antibody directed against the Flag epitope and diluted 1∶1,000. Cells were washed 3 times, and antibody binding was visualized by adding 0.25 mL of an alkaline phosphatase substrate (Bio-Rad). Development was stopped by adding 0.1 mL of the substrate to a 96-well microtiter plate containing 0.1 mL of 0.4 M NaOH.
A general note: An ELISA detects its analyte on a solid surface through an enzyme-linked reagent.

A further experiment concerns the target T3, hH2R (Homo sapiens, UniProt P25021).
T3 construct: expressed in transfected cells
As to the kind of experiment: CRE-driven luciferase activity in HEK-293 cells stably expressing hH2R. From the text:
Figure 3 The selectivity of ZEL-H16 for hH3R in intracellular Ca^2+ flux assay and CRE-luciferase transcription assay. A–C, Intracellular Ca^2+ flux or CRE-driven luciferase activity induced by ZEL-H16 in HEK-293 cells stably expressing hH1R (A), hH2R (B), or hH4R (C). […] The presented data points are the mean ±SE of triplicate values from a single experiment and are representative of three separate experiments. Statistical analysis between ZEL-H16 added or not added for each concentration point in the kinetic graph was done using a t-test (PRISM software). G, Relative expression of hH1R, hH2R, hH3R and hH4R on transfected HEK-293 cells by ELISA quantification for Flag-tagged cell-surface receptors (***p<0.001, compared to non-transfected HEK 293 cells).
Stable HEK-293 cells co-transfected with H3R and pCRE-Luc were seeded in a 48-well plate overnight and were grown to […] confluence. […] Luciferase activity was detected using a firefly luciferase kit (Promega, Madison, WI). When required, cells were treated overnight with or without PTX (100 ng/ml) in serum-free DMEM before the experiment.

The target in experiment [3] is T2, H3R. As to the kind of experiment: CRE-driven luciferase reporter gene assay in HEK-293 cells stably expressing hH3R. The procedure: A, Concentration inhibition curve of luciferase activity induced by ZEL-H16 with forskolin stimulation. […] C. […] The presented data points are the mean ±SE of triplicate values from a single experiment and are representative of three to six separate experiments (*p<0.05; **p<0.01).
Luciferase activity was detected using a firefly luciferase kit (Promega, Madison, WI). When required, cells were treated overnight with or without PTX (100 ng/ml) in serum-free DMEM before the experiment.
For orientation: Reporter assays use an easily measured gene product as a stand-in for the process of interest.

As a reminder, the EC50 is the concentration that produces a half-maximal response.

T3 sequence (P25021 whole entry): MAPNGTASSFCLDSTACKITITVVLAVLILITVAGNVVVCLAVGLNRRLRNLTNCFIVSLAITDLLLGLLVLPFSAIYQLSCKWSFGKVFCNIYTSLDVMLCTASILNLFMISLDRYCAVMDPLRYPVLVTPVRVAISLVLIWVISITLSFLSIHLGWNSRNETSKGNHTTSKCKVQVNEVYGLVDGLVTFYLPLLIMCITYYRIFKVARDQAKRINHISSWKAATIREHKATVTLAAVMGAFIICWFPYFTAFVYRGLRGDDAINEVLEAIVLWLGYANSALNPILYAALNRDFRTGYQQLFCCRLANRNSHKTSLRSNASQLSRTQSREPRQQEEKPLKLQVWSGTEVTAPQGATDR
T1 sequence (P58406 whole entry): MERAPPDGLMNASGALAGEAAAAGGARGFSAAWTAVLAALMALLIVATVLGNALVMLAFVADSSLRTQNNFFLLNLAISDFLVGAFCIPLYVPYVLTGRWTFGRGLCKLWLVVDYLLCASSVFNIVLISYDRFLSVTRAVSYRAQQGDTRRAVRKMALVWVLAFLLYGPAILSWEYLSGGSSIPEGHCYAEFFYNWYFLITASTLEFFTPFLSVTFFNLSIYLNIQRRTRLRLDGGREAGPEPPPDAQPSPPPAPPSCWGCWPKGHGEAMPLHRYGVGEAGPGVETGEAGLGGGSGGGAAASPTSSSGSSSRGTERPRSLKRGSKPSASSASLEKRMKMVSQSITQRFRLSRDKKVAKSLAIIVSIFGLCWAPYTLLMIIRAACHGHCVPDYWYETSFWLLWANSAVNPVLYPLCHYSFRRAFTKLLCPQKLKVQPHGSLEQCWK

Turning to `c1ccc2c(c1)c(CCCN1CCCCC1)cn2CCCN1CCCCC1` [ZEL-H16], the “time of maximal ERK activation after stimulation” value at mouse H3R is given as 20 min. Also, the EC50 was determined as 1100 ± 100 nM on H3R [1] (10 nM to 100 µM, Western-blot densitometry) and 4.36 ± 1.39 nM at H3R [3] (inhibition of forskolin-induced luciferase activity, Mean ± SEM, n = 6). Also, on H3R [1] (1 µM), the “time of maximal ERK1/2 activation after stimulation” value was 2 min. Further, the Emax at 1 µM on H3R [1] (HEK293, read-out: maximal activation of ERK1/2 relative to maximal activation induced by histamine, 1 µM) is around 50%. Also, the “loss in the expression of the receptors on the cell surface (internalization)” value on H3R [2] was 50%. Also, on hH2R (ZEL-H16 added to histamine), the “antagonist activity: influence on luciferase activity curves induced by histamine” value was “did not significantly change the luciferase activity curves”. In addition, the “agonist activity: luciferase activity after stimulation” value at hH2R (ZEL-H16 alone) is listed as “no significant responses”. Further, the Emax at H3R [3] (HEK293) is 61 ± 3.2%. Further, the Schild slope at H3R [3] (agonist curves in the presence of 30 nM, 300 nM or 1 µM thioperamide) was determined as 1.140±0.168.

(Values after PMC3411647 (PLoS ONE, 2012).)
